Source: PMC9481151, “Discovery of new symmetrical and asymmetrical nitrile-containing 1,4-dihydropyridine derivatives as dual kinases and P-glycoprotein inhibitors: synthesis, in vitro assays, and in silico studies” (Journal of Enzyme Inhibition and Medicinal Chemistry, 2022)

Tests used:
SF-539 = assay: NCI single dose (10 µM) SRB screen; format: cell-based, human; conditions: CNS cancer, 48 h
IGROV1 = assay: NCI single dose (10 µM) SRB screen; format: cell-based, human; conditions: ovarian cancer, 48 h
786-0 = assay: NCI single dose (10 µM) SRB screen; format: cell-based, human; conditions: renal cancer, 48 h
COLO 205 = assay: NCI single dose (10 µM) SRB screen; format: cell-based, human; conditions: colon cancer, 48 h
U251 = assay: NCI single dose (10 µM) SRB screen; format: cell-based, human; conditions: CNS cancer, 48 h
Pseudomonas aeruginosa = assay: Agar well diffusion method
HCT-15 = assay: NCI single dose (10 µM) SRB screen; format: cell-based, human; conditions: colon cancer, 48 h
NCI/ADR-RES = assay: NCI single dose (10 µM) SRB screen; format: cell-based, human; conditions: ovarian cancer, 48 h
SK-MEL-2 = assay: NCI single dose (10 µM) SRB screen; format: cell-based, human; conditions: melanoma, 48 h
KM12 = assay: NCI single dose (10 µM) SRB screen; format: cell-based, human; conditions: colon cancer, 48 h
NCI-H23 = assay: NCI single dose (10 µM) SRB screen; format: cell-based, human; conditions: non-small cell lung cancer, 48 h
Staphylococcus aureus = assay: Agar well diffusion method
A549/ATCC = assay: NCI single dose (10 µM) SRB screen; format: cell-based, human; conditions: non-small cell lung cancer, 48 h
SK-MEL-28 = assay: NCI single dose (10 µM) SRB screen; format: cell-based, human; conditions: melanoma, 48 h
HCT-116 = assay: NCI single dose (10 µM) SRB screen; format: cell-based, human; conditions: colon cancer, 48 h
SNB-19 = assay: NCI single dose (10 µM) SRB screen; format: cell-based, human; conditions: CNS cancer, 48 h
MALME-3M = assay: NCI single dose (10 µM) SRB screen; format: cell-based, human; conditions: melanoma, 48 h
HL-60(TB) = assay: NCI single dose (10 µM) SRB screen; format: cell-based, human; conditions: leukaemia, 48 h
Escherichia coli = assay: Agar well diffusion method; conditions: relative to ciprofloxacin
SF-295 = assay: NCI single dose (10 µM) SRB screen; format: cell-based, human; conditions: CNS cancer, 48 h
Bacillus subtilis = assay: Agar well diffusion method; conditions: relative to ciprofloxacin
NCI-H522 = assay: NCI single dose (10 µM) SRB screen; format: cell-based, human; conditions: non-small cell lung cancer, 48 h
K-562 = assay: NCI single dose (10 µM) SRB screen; format: cell-based, human; conditions: leukaemia, 48 h
SN12C = assay: NCI single dose (10 µM) SRB screen; format: cell-based, human; conditions: renal cancer, 48 h
RPMI-8226 = assay: NCI single dose (10 µM) SRB screen; format: cell-based, human; conditions: leukaemia, 48 h
HT29 = assay: NCI single dose (10 µM) SRB screen; format: cell-based, human; conditions: colon cancer, 48 h
CAKI-1 = assay: NCI single dose (10 µM) SRB screen; format: cell-based, human; conditions: renal cancer, 48 h
CCRF-CEM = assay: NCI single dose (10 µM) SRB screen; format: cell-based, human; conditions: leukaemia, 48 h
SK-OV-3 = assay: NCI single dose (10 µM) SRB screen; format: cell-based, human; conditions: ovarian cancer, 48 h
TK-10 = assay: NCI single dose (10 µM) SRB screen; format: cell-based, human; conditions: renal cancer, 48 h
DU-145 = assay: NCI single dose (10 µM) SRB screen; format: cell-based, human; conditions: prostate cancer, 48 h
NCI-H460 = assay: NCI single dose (10 µM) SRB screen; format: cell-based, human; conditions: non-small cell lung cancer, 48 h
SR = assay: NCI single dose (10 µM) SRB screen; format: cell-based, human; conditions: leukaemia, 48 h
MDA-MB-468 = assay: NCI single dose (10 µM) SRB screen; format: cell-based, human; conditions: breast cancer, 48 h
HOP-92 = assay: NCI single dose (10 µM) SRB screen; format: cell-based, human; conditions: non-small cell lung cancer, 48 h
EKVX = assay: NCI single dose (10 µM) SRB screen; format: cell-based, human; conditions: non-small cell lung cancer, 48 h
UACC-62 = assay: NCI single dose (10 µM) SRB screen; format: cell-based, human; conditions: melanoma, 48 h
M14 = assay: NCI single dose (10 µM) SRB screen; format: cell-based, human; conditions: melanoma, 48 h
MOLT-4 = assay: NCI single dose (10 µM) SRB screen; format: cell-based, human; conditions: leukaemia, 48 h
ACHN = assay: NCI single dose (10 µM) SRB screen; format: cell-based, human; conditions: renal cancer, 48 h
UO-31 = assay: NCI single dose (10 µM) SRB screen; format: cell-based, human; conditions: renal cancer, 48 h
NCI-H322M = assay: NCI single dose (10 µM) SRB screen; format: cell-based; conditions: non-small cell lung cancer, 48 h
HOP-62 = assay: NCI single dose (10 µM) SRB screen; format: cell-based, human; conditions: non-small cell lung cancer, 48 h
OVCAR-5 = assay: NCI single dose (10 µM) SRB screen; format: cell-based, human; conditions: ovarian cancer, 48 h
SNB-75 = assay: NCI single dose (10 µM) SRB screen; format: cell-based, human; conditions: CNS cancer, 48 h
A498 = assay: NCI single dose (10 µM) SRB screen; format: cell-based, human; conditions: renal cancer, 48 h
MDA-MB-435 = assay: NCI single dose (10 µM) SRB screen; format: cell-based, human; conditions: melanoma, 48 h
MDA-MB-231 = assay: NCI single dose (10 µM) SRB screen; format: cell-based, human; conditions: breast cancer, 48 h
PC-3 = assay: NCI single dose (10 µM) SRB screen; format: cell-based, human; conditions: prostate cancer, 48 h
SF-268 = assay: NCI single dose (10 µM) SRB screen; format: cell-based, human; conditions: CNS cancer, 48 h
HCC-2998 = assay: NCI single dose (10 µM) SRB screen; format: cell-based, human; conditions: colon cancer, 48 h
T-47D = assay: NCI single dose (10 µM) SRB screen; format: cell-based, human; conditions: breast cancer, 48 h
UACC-257 = assay: NCI single dose (10 µM) SRB screen; format: cell-based, human; conditions: melanoma, 48 h

`COC(=O)C1=C(C)NC(C)=C(C(=O)OCc2ccccc2)C1c1cccc(C#N)c1` (racemic) [Compound 2e, (±)-3-Benzyl 5-methyl 4-(3-cyanophenyl)-2,6-dimethyl-1,4-dihydropyridine-3,5-dicarboxylate] was tested, and the “GI% SF-539” value (SF-539) was 32%, the “GI% IGROV1” value (IGROV1) was 36% and the “GI% 786-0” value (786-0) was 22%. For the same compound, the “GI% COLO 205” value (COLO 205) was 43%, the “GI% U251” value (U251) was 46% and the zone of inhibition at 1000 µg/mL (Pseudomonas aeruginosa; Pseudomonas aeruginosa, 24 h, read-out: Diameter of inhibition zone, P. aeruginosa) was 7 mm. The “% activity index, P. aeruginosa” value (Pseudomonas aeruginosa; relative to ciprofloxacin) was 30.4%, the “GI% HCT-15” value (HCT-15) was 66% and the “GI% NCI/ADR-RES” value (NCI/ADR-RES) was 25%. For the same compound, the “GI% SK-MEL-2” value (SK-MEL-2) was “– (Only GI% ≥ 10 are shown)”, the “GI% KM12” value (KM12) was 39% and the “GI% NCI-H23” value (NCI-H23) was “– (Only GI% ≥ 10 are shown)”. For the same compound, the zone of inhibition at 1000 µg/mL (Staphylococcus aureus; Staphylococcus aureus, 24 h, read-out: Diameter of inhibition zone, S. aureus) was 8 mm, the “% activity index, S. aureus” value (Staphylococcus aureus; relative to ciprofloxacin) was 33.3% and the “GI% A549/ATCC” value (A549/ATCC) was 31%. The “GI% SK-MEL-28” value (SK-MEL-28) was 27%, the “GI% HCT-116” value (HCT-116) was 71% and the “GI% SNB-19” value (SNB-19) was 32%. For the same compound, the “GI% MALME-3M” value (MALME-3M) was 24%, the “GI% HL-60(TB)” value (HL-60(TB)) was 43% and the “% activity index, E. coli” value (Escherichia coli) was “– (Values below 25 are of limited value and not shown as they refer either to inactive or non-diffusing compounds)”. For the same compound, the “GI% SF-295” value (SF-295) was 44%, the “% activity index, B. subtilis” value (Bacillus subtilis) was “– (Values below 25 are of limited value and not shown as they refer either to inactive or non-diffusing compounds)” and the “GI% NCI-H522” value (NCI-H522) was 24%. The “GI% K-562” value (K-562) was 56%, the “GI% SN12C” value (SN12C) was “– (Only GI% ≥ 10 are shown)” and the “GI% RPMI-8226” value (RPMI-8226) was 52%. For the same compound, the “GI% HT29” value (HT29) was 31%, the “GI% CAKI-1” value (CAKI-1) was 27% and the “GI% CCRF-CEM” value (CCRF-CEM) was 37%. For the same compound, the “GI% SK-OV-3” value (SK-OV-3) was “– (Only GI% ≥ 10 are shown)”, the “GI% TK-10” value (TK-10) was “– (Only GI% ≥ 10 are shown)” and the “GI% DU-145” value (DU-145) was 15%. The “GI% NCI-H460” value (NCI-H460) was 64%, the “GI% SR” value (SR) was 33% and the “GI% MDA-MB-468” value (MDA-MB-468) was 33%. The “GI% HOP-92” value (HOP-92) was 12%, the “GI% EKVX” value (EKVX) was 26% and the “GI% UACC-62” value (UACC-62) was 37%. For the same compound, the “GI% M14” value (M14) was 15%, the “GI% MOLT-4” value (MOLT-4) was 56% and the “GI% ACHN” value (ACHN) was 28%. The “GI% UO-31” value (UO-31) was “– (Only GI% ≥ 10 are shown)”, the “GI% NCI-H322M” value (NCI-H322M) was “– (Only GI% ≥ 10 are shown)” and the “GI% HOP-62” value (HOP-62) was 16%. The “GI% OVCAR-5” value (OVCAR-5) was 21%, the “GI% SNB-75” value (SNB-75) was 34% and the “GI% A498” value (A498) was 10%. The “GI% MDA-MB-435” value (MDA-MB-435) was 35%, the “GI% MDA-MB-231” value (MDA-MB-231) was 30% and the “GI% PC-3” value (PC-3) was 51%. The “GI% SF-268” value (SF-268) was 23%, the “GI% HCC-2998” value (HCC-2998) was “– (Only GI% ≥ 10 are shown)” and the “GI% T-47D” value (T-47D) was 11%. For the same compound, the “GI% UACC-257” value (UACC-257) was 21%.
